Test results published in patent publication US9486440B2, “Uses of indole-ketones or indolidones as neuro-protective drugs” (UNIVERSITY OF MACAU, priority 2011, dated 2016).
Entries after “also recorded” stand apart in the source; their conditions may differ.

Legend:
CGNs = test: MPP+-induced neurotoxicity in CGNs, MTT and LDH assays; format: cell-based, rat; conditions: for MPP+-induced neurotoxicity, co-administration: co-administrated with 35 μM MPP+, SU4312 10-20 μM, PTK787/ZK222584 10 μM, MTT at 24 hours; for MPP+-induced cell death (cell viability, MTT and LDH assays): pre-treatment 2 hours, then 35 μM MPP+ for 24 hours; for cell proliferative or cytotoxic effects of the drug alone: without MPP+, 26 hours, SU4312 1-30 μM, SU5416 30 μM, sunitinib 2 μM
Experimental: (§1) All animal experiments were conducted according to the ethical guidelines of ICMS, Macau University and the Animal Care Facility, The Hong Kong Polytechnic University. Rat CGNs were prepared from 8-day-old Sprague-Dawley rats (The Animal Care Facility, The Hong Kong Polytechnic University) as described by Li et al., 2005. Briefly, neurons were seeded at a density of 2.7×10^5 cells/ml in basal modified Eagle's medium (Invitrogen) containing 10% fetal bovine serum, 25 mM KCl, 2 mM glutamine, and penicillin (100 units/ml)/streptomycin (100 μg/ml). Cytosine arabinoside (10 μM) was added to the culture medium 24 hour after plating to limit the growth of non-neuronal cells. With the use of this protocol, more than 95% of the cultured cells were granule neurons.
(§2) The percentage of surviving neurons in the presence of SU4312 and/or MPP^+ was estimated by determining the activity of mitochondrial dehydrogenases with 3(4,5-dimethylthiazol-2-yl)-2.5-diphenyltetrazolium bromide (MTT) assay (Li et al., 2007). The assay was performed according to the specifications of the manufacturer (MTT kit I; Roche Applied Science). Briefly, the neurons were cultured in 96-well plates, 10 μl of 5 mg/ml MTT labeling reagent was added to each well containing cells in 100 μl of medium, and the plates were incubated for 4 hours in a humidified incubator at 37° C. After the incubation, 100 μl of the solvating solution (0.01 N HCl in 10% SDS solution) was added to each well for 16-20 hours. Absorbance of the samples was measured at a wavelength of 570 nm with 655 nm as a reference wavelength. Unless otherwise indicated, the extent of MTT conversion in cells exposed to MPP^+ is expressed as a percentage of the control.
Cytotoxicity was determined by measuring the release of lactate dehydrogenase (LDH). Briefly, cells were precipitated by centrifugation at 500 g for 5 min at room temperature, 50 μl of the supernatants was transferred into new wells, and LDH was determined using the in vitro toxicology assay kit (Roche). The absorbance of the samples was measured at a wavelength of 490 nm with 655 nm as a reference wavelength.
as §1, with “Rat” for “All animal experiments were conducted according to the ethical guidelines of ICMS, Macau University and the Animal Care Facility, The Hong Kong Polytechnic University. Rat”, “hours” for “hour”
as §2, with “The” for “The percentage of surviving neurons in the presence of SU4312 and/or MPP^+ was estimated by determining the activity of mitochondrial dehydrogenases with 3(4,5-dimethylthiazol-2-yl)-2.5-diphenyltetrazolium bromide (MTT) assay (Li et al., 2007). The”, “incubated at 37° C.” for “incubated”, “incubator.” for “incubator at 37° C.”, “The absorbance” for “Absorbance”

[1] = system: intersegmental-vessel (ISV) formation; test: Intersegmental-vessel formation in Tg(fli-1:EGFP) zebrafish; format: in vivo; conditions: 1 dpf embryos treated 48 hours; SU4312 3-30 μM, PTK787/ZK222584 0.3-3 μM, VRI 0.1-0.3 μM, SU5416 0.3-1 μM
Experimental: Wild-type zebrafish (AB strain) and Tg (fli-1:EGFP) transgenic zebrafish were maintained as described in the Zebrafish Handbook (Westerfield, 1993). Zebrafish embryos were generated by natural pair-wise mating (3-12 months old) and raised at 28.5° C. in embryo medium (13.7 mM NaCl, 540 μM KCl, pH 7.4, 25 μM Na2HPO4, 44 μM KH2PO4, 300 μM CaCl2, 100 μM MgSO4, 420 μM NaHCO3, pH 7.4). […] An equal concentration of DMSO in embryo medium was used as vehicle control in each experiment.
(§3) After drug treatment, zebrafish were removed from microplate and observed for gross morphological changes of blood vessel under a fluorescence microscope (Olympus am Motorized Inverted Microscope, Japan) equipped with a digital camera (DP controller, Soft Imaging System, Olympus). Images were analyzed with Axiovision 4.2 and Adobe Photoshop 7.0.
Wild-type zebrafish (AB strain) and Tg(fli-1:EGFP) transgenic zebrafish were maintained as described in the Zebrafish Handbook (Westerfield, 1993). Zebrafish embryos were generated by natural pair-wise mating (3-12 months old) and were raised at 28.5° C. in embryo medium (13.7 mM NaCl, 540 μM KCl, pH 7.4, 25 μM Na2HPO4, 44 μM KH2PO4, 300 μM CaCl2, 100 μM MgSO4, 420 μM NaHCO3, pH 7.4). […] Equal concentration of DMSO in embryo medium was used as vehicle control in each experiment.
as §3, with “from the” for “from”

SMILES	MPP+-induced neurotoxicity, co-administration (CGNs)	MPP+-induced cell death (cell viability, MTT and LDH assays) (CGNs)	cell proliferative or cytotoxic effects of the drug alone (CGNs)	inhibition of intersegmental-vessel (ISV) formation [1]
CN(C)c1ccc(C=C2C(=O)Nc3ccccc32)cc1 [SU4312, 3-[4-(dimethylamino)benzylidenyl]indolin-2-one]	still had neuroprotective effects	prevented MPP^+-induced cell death in a concentration-dependent manner	did not affect cell proliferation or show any cytotoxic effects; also recorded: did not induce any neurotoxicity	showed differential concentration-dependent inhibition of ISV formation
Cc1cc(C)c(/C=C2\C(=O)Nc3ccccc32)[nH]1 [SU5416, (3Z)-3-[(3,5-dimethyl-1H-pyrrol-2-yl)methylidene]-1,3-dihydro-2H-indol-2-one]		prevented 35 μM MPP^+-induced cell death in a concentration-dependent manner	did not produce any cell proliferative or cytotoxic effects	did not show this activity
Clc1ccc(Nc2nnc(Cc3ccncc3)c3ccccc23)cc1 [PTK787/ZK222584]	did not show neuroprotective effects	at 3-10 μM failed to block neuronal loss in vitro		showed differential concentration-dependent inhibition of ISV formation; also recorded: at 1 μM inhibited angiogenesis with the potency similar to that of SU4312 at 30 μM
